Results reported in PubChem BioAssay AID1918955 (Molecular Pharmacology Branch, DTP, NCI, 2023).

Test system: NCI/ADR-RES complex spheroid viability
Experiment: Anticancer human tumor NCI/ADR-RES cell line growth inhibition;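 on viability, T/C: 100% = DMSO vehicle treated spheroids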
Settings: for IC50: curve of first compound; for viability, T/C: stronger effect = lower value; active means viability on the fitted dose curve at most 10% of control; inactive means the rest
Summary of the method: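 Complex spheroids of tumor cells with HUVEC and human MSCs, exposed to iadademstat combined with other agents. Each agent tested in half-log steps from near clinical Cmax (else 10 microM top), DMSO ≤0.25%.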

[1] = second compound 0.1 µM, first compound 0.00949 µM
[2] = second compound 0.1 µM, first compound 0.03 µM
[3] = second compound 0.1 µM, first compound 0.0949 µM
[4] = second compound 0.1 µM, first compound 0.3 µM
[5] = second compound 0.316 µM, first compound 0.00949 µM
[6] = second compound 0.316 µM, first compound 0.03 µM
[7] = second compound 0.316 µM, first compound 0.0949 µM
[8] = second compound 0.316 µM, first compound 0.3 µM
[9] = second compound 1 µM, first compound 0.00949 µM
[10] = second compound 1 µM, first compound 0.03 µM
[11] = second compound 1 µM, first compound 0.0949 µM
[12] = second compound 1 µM, first compound 0.3 µM
[13] = second compound 3.16 µM, first compound 0.00949 µM
[14] = second compound 3.16 µM, first compound 0.03 µM
[15] = second compound 3.16 µM, first compound 0.0949 µM
[16] = second compound 3.16 µM, first compound 0.3 µM
[17] = second compound 10 µM, first compound 0.00949 µM
[18] = second compound 10 µM, first compound 0.03 µM
[19] = second compound 10 µM, first compound 0.0949 µM
[20] = second compound 10 µM, first compound 0.3 µM

Nc1ccccc1NC(=O)c1ccc(CNC(=O)OCc2cccnc2)cc1 + NC1CCC(NC2CC2c2ccccc2)CC1
979 nM: IC50 (second compound 3.16 µM)
inactive: viability, T/C [1] 106% | viability, T/C [2] 96.8% | viability, T/C [3] 93.4% | viability, T/C [4] 80.8% | viability, T/C (second compound 0.1 µM, first compound 0.949 µM) 52.6% | viability, T/C (second compound 0.1 µM, first compound 3 µM) 32.7% | viability, T/C [5] 110% | viability, T/C [6] 98.6% | viability, T/C [7] 96.8% | viability, T/C [8] 93.8% | viability, T/C (second compound 0.316 µM, first compound 0.949 µM) 57.9% | viability, T/C (second compound 0.316 µM, first compound 3 µM) 30.5% | viability, T/C [9] 106% | viability, T/C [10] 100% | viability, T/C [11] 97.6% | viability, T/C [12] 76.5% | viability, T/C (second compound 1 µM, first compound 0.949 µM) 56.8% | viability, T/C (second compound 1 µM, first compound 3 µM) 32.9% | viability, T/C [13] 102% | viability, T/C [14] 100% | viability, T/C [15] 93% | viability, T/C [16] 79.6% | viability, T/C (second compound 3.16 µM, first compound 0.949 µM) 49.8% | viability, T/C (second compound 3.16 µM, first compound 3 µM) 30.7% | viability, T/C [17] 95.1% | viability, T/C [18] 79.8% | viability, T/C [19] 72.7% | viability, T/C [20] 65.5% | viability, T/C (second compound 10 µM, first compound 0.949 µM) 42.4% | viability, T/C (second compound 10 µM, first compound 3 µM) 22.2%
622 nM: IC50 (second compound 10 µM)
1170 nM: IC50 (second compound 0.1 µM)
1270 nM: IC50 (second compound 1 µM)
1340 nM: IC50 (second compound 0.316 µM)

Nc1ccn(C2OC(CO)C(O)C2(F)F)c(=O)n1 (stereo not given) + NC1CCC(NC2CC2c2ccccc2)CC1
< 0.949 nM: IC50 (second compound 0.1 µM) | IC50 (second compound 0.316 µM) | IC50 (second compound 1 µM) | IC50 (second compound 3.16 µM) | IC50 (second compound 10 µM)
active: viability, T/C (second compound 0.1 µM, first compound 0.000949 µM) 2.74% | viability, T/C (second compound 0.1 µM, first compound 0.003 µM) 4.03% | viability, T/C [1] 2.54% | viability, T/C [2] 2.78% | viability, T/C [3] 2.85% | viability, T/C [4] 3.22% | viability, T/C (second compound 0.316 µM, first compound 0.000949 µM) 4.09% | viability, T/C (second compound 0.316 µM, first compound 0.003 µM) 4.64% | viability, T/C [5] 2.74% | viability, T/C [6] 3.17% | viability, T/C [7] 1.83% | viability, T/C [8] 5.17% | viability, T/C (second compound 1 µM, first compound 0.000949 µM) 3.13% | viability, T/C (second compound 1 µM, first compound 0.003 µM) 3.5% | viability, T/C [9] 3.1% | viability, T/C [10] 2.71% | viability, T/C [11] 2.01% | viability, T/C [12] 1.76% | viability, T/C (second compound 3.16 µM, first compound 0.000949 µM) 2.3% | viability, T/C (second compound 3.16 µM, first compound 0.003 µM) 3.42% | viability, T/C [13] 2.96% | viability, T/C [14] 1.75% | viability, T/C [15] 0.86% | viability, T/C [16] 2.49% | viability, T/C (second compound 10 µM, first compound 0.000949 µM) 1.69% | viability, T/C (second compound 10 µM, first compound 0.003 µM) 2.17% | viability, T/C [17] 2.05% | viability, T/C [18] 2.1% | viability, T/C [19] 5.19% | viability, T/C [20] 0.69%

O=C(c1cc(Cc2n[nH]c(=O)c3ccccc23)ccc1F)N1CCN(C(=O)C2CC2)CC1 + NC1CCC(NC2CC2c2ccccc2)CC1
> 10000 nM: IC50 (second compound 0.1 µM) | IC50 (second compound 0.316 µM) | IC50 (second compound 1 µM) | IC50 (second compound 3.16 µM) | IC50 (second compound 10 µM)
inactive: viability, T/C (second compound 0.1 µM, first compound 0.0316 µM) 99.8% | viability, T/C (second compound 0.1 µM, first compound 0.1 µM) 97.5% | viability, T/C (second compound 0.1 µM, first compound 0.316 µM) 104% | viability, T/C (second compound 0.1 µM, first compound 1 µM) 102% | viability, T/C (second compound 0.1 µM, first compound 3.16 µM) 102% | viability, T/C (second compound 0.1 µM, first compound 10 µM) 87.6% | viability, T/C (second compound 0.316 µM, first compound 0.0316 µM) 109% | viability, T/C (second compound 0.316 µM, first compound 0.1 µM) 101% | viability, T/C (second compound 0.316 µM, first compound 0.316 µM) 105% | viability, T/C (second compound 0.316 µM, first compound 1 µM) 111% | viability, T/C (second compound 0.316 µM, first compound 3.16 µM) 96.2% | viability, T/C (second compound 0.316 µM, first compound 10 µM) 101% | viability, T/C (second compound 1 µM, first compound 0.0316 µM) 100% | viability, T/C (second compound 1 µM, first compound 0.1 µM) 108% | viability, T/C (second compound 1 µM, first compound 0.316 µM) 112% | viability, T/C (second compound 1 µM, first compound 1 µM) 107% | viability, T/C (second compound 1 µM, first compound 3.16 µM) 105% | viability, T/C (second compound 1 µM, first compound 10 µM) 91.5% | viability, T/C (second compound 3.16 µM, first compound 0.0316 µM) 99.1% | viability, T/C (second compound 3.16 µM, first compound 0.1 µM) 102% | viability, T/C (second compound 3.16 µM, first compound 0.316 µM) 97.4% | viability, T/C (second compound 3.16 µM, first compound 1 µM) 96% | viability, T/C (second compound 3.16 µM, first compound 3.16 µM) 104% | viability, T/C (second compound 3.16 µM, first compound 10 µM) 87.3% | viability, T/C (second compound 10 µM, first compound 0.0316 µM) 94.8% | viability, T/C (second compound 10 µM, first compound 0.1 µM) 97.4% | viability, T/C (second compound 10 µM, first compound 0.316 µM) 93.1% | viability, T/C (second compound 10 µM, first compound 1 µM) 88.8% | viability, T/C (second compound 10 µM, first compound 3.16 µM) 92.5% | viability, T/C (second compound 10 µM, first compound 10 µM) 91.7%
